Like-named read-outs stand apart in the source and are kept apart here.
Tests used:
P. aeruginosa PA01 = experiment: MIC broth microdilution and checkerboard; format: cell-based, Pseudomonas aeruginosa; details: for DRI EDTA:ROB: DRI of the labelled component; for MIC: Pseudomonas aeruginosa; for MIC in combination EDTA:ROB: concentration of the labelled component
Method: (§1) The MIC for ampicillin or gentamicin against each isolate was determined for each test to serve as an internal quality control. The MICs of isolates were determined by visual reading and using an EnSpire Multimode Plate Reader 2300 atA600nm.
(§2) Briefly, antimicrobial stock solutions for robenidine and PMBN were prepared at a concentration of 12.8 mg/ml in DMSO. […] A 1 μl aliquot of the first compound from each combination was dispensed along the abscissa (from row A to G) of the 96-well microplate, while the second compound was dispensed along the ordinate (from column 12 to column 3) using an electronic multichannel pipette followed by 89 μl of LB broth. Each well of the plate was inoculated with an aliquot of 10 μl bacterial suspension at a concentration of 1-5 × 10^6 colony forming units (CFU) per ml. Subsequently, the plate was incubated at 37°C for 24 h. The fractional inhibitory concentration index (FICI) described the results of the combinations, and was calculated utilizing the following formula:
(§3) DRI = MIC of drug alone/MIC of drug in combination

[1] = tested on: Beta-haemolytic streptococci (n = 20) clinical isolates from otitis externa cases in dogs; experiment: MIC/MBC and checkerboard, canine otitis externa isolates; format: cell-based, beta-haemolytic Streptococcus spp.; details: for MIC50 / MIC90: Streptococcus; for MIC50, in combination of EDTA and ROB / MIC90, in combination of EDTA and ROB / MIC range, in combination of EDTA and ROB: concentration of the labelled component
Description: (§4) Escherichia coli ATCC 25922, E. coli ATCC 11229, P. aeruginosa ATCC 27853, P. aeruginosa PA01, Pseudomonas putida ATCC 17428, P. mirabilis ATCC 43071, K. pneumoniae ATCC 13883, A. baumannii ATCC 19606, and A. baumannii ATCC 12457 were used for preliminary susceptibility testing and combination experiments. S. aureus ATCC 29213 and S. pneumoniae ATCC 49619 were used as internal quality controls. A variety of bacterial organisms from both human and canine infections were investigated in this study (n = 119 isolates in total). Twenty-eight clinical Acinetobacter spp. isolates were obtained from cases of human skin and soft tissue infections, including 18 Acinetobacter baumannii and 10 A. calcoaceticus, kindly provided by a person (Institute of Medical and Veterinary Science, South Australia). […] Ninety-one clinical isolates were obtained from cases of canine otitis externa, including seven methicillin-susceptible S. pseudintermedius (MSSP), 13 multidrug- and methicillin-resistant S. pseudintermedius (MRSP) ([Saputra et al., 2017]), 20 beta-haemolytic Streptococcus spp., 30 P. aeruginosa (10 of them resistant to gentamicin and 21 P. mirabilis isolates). These isolates were obtained from the bacterial collection of the national survey of antimicrobial resistance in animals conducted in Australia. Swab samples from dogs with signs of otitis externa were collected by veterinarians and submitted to government, private or university diagnostic laboratories throughout Australia. After routine bacterial identification and the removal of confidential information, the participating veterinary diagnostic laboratories submitted the bacteria and their clinical information to PC2 Laboratories, Australian Centre for Antimicrobial Resistance Ecology, School of Animal and Veterinary Sciences, University of Adelaide, Roseworthy Campus, Roseworthy, SA, Australia, for further study. Thus, animal ethics approval was not required in this study. These organisms were identified to species level using biochemical testing and MALDI-TOF mass spectrometry (Bruker, Preston, VIC, Australia).
as §1
(§5) Briefly, 10 μl aliquots from each duplicate well from the MIC assays (starting from the MIC for each compound) were inoculated onto a sheep blood agar (SBA) plate and incubated at 37°C.
as §2, §3

[2] = tested on: preformed biofilms of P. aeruginosa PA01 and clinical isolates of P. aeruginosa; experiment: Antibiofilm susceptibility (MBEC device) and biofilm checkerboard; format: cell-based, Pseudomonas aeruginosa
Method: (§6) Briefly, biofilms of P. aeruginosa PA01, two clinical isolates of P. aeruginosa isolates and two clinical isolates of S. pseudintermedius were formed by inoculating 150 μl of 10^7 CFU/ml of each bacterial suspension in the MBEC^TM device. The inoculated device was aerobically incubated on an orbital shaker at 37°C (OM11, Ratek Instruments Pty Ltd., Australia) for 24 h to produce equivalent (Uniform) biofilms on all pegs. […] Following antimicrobial challenge, the biofilms were rinsed twice with phosphate buffered saline (pH = 7) and disrupted via sonication (Soniclean, Model 160TD, Australia) for 10 min into the recovery medium. Viable cell counts were determined for recovered cells (colony-forming units per peg) after preparing a serial dilution and plating 10 μl in duplicates of each dilution onto plate count agar. Viable counts were then expressed as a percentage of the mean CFU of growth controls. MBEC was defined as the lowest concentration of antimicrobial agent that eradicates the biofilms recovered from the antimicrobial challenge.
(§7) Briefly, the MBEC^TM High-throughput assay system (MBEC^TM BioProducts, Innovotech, Canada) was used for the preparation of Gram-positive and Gram-negative biofilm producing bacteria as described above for antibiofilm susceptibility testing. […] Subsequently, the plate was incubated at 37°C for 24 h.

[3] = tested on: S. pseudintermedius (n = 20) clinical isolates from otitis externa cases in dogs; experiment: MIC/MBC and checkerboard, canine otitis externa isolates; format: cell-based, Staphylococcus pseudintermedius; details: for MIC50 / MIC90: Staphylococcus pseudintermedius; for MIC50, in combination of EDTA and ROB / MIC90, in combination of EDTA and ROB / MIC range, in combination of EDTA and ROB: concentration of the labelled component
Description: as §4, §1, §5, §2, §3

[4] = tested on: P. mirabilis (n = 21) clinical isolates from otitis externa cases in dogs; experiment: as above; format: cell-based, Proteus mirabilis; details: for MIC50 / MIC90: Proteus mirabilis; for MIC50, in combination of EDTA and ROB / MIC90, in combination of EDTA and ROB / MIC range, in combination of EDTA and ROB: concentration of the labelled component
Description: as §4, §1, §5, §2, §3

[5] = tested on: preformed biofilms of two clinical isolates of S. pseudintermedius; experiment: Antibiofilm susceptibility (MBEC device) and biofilm checkerboard; format: cell-based, Staphylococcus pseudintermedius
Method: as §6, §7

[6] = canine otitis externa, read-out: MIC50, single drug
[7] = canine otitis externa, read-out: MIC90, single drug
[8] = read-out: MIC50, single drug (mM in parentheses)
[9] = read-out: MIC90, single drug (mM in parentheses)

Compound: N=C(N/N=C/c1ccc(Cl)cc1)N/N=C/c1ccc(Cl)cc1 [ROB, robenidine]
- DRI EDTA:ROB (P. aeruginosa PA01): 256
- MIC (P. aeruginosa PA01; read-out: MIC, single drug): > 256 µg/mL
- MIC in combination EDTA:ROB (P. aeruginosa PA01): 1.25 µg/mL
- MBC/MIC, ROB in combination with EDTA [1]: 2
- MIC50 [1, 6]: 8 µg/mL
- MIC90 [1, 7]: 8 µg/mL
- MIC range, single drug ([1]; canine otitis externa): 4 to 16 µg/mL
- MIC50, in combination of EDTA and ROB [1]: 2 µg/mL
- MIC90, in combination of EDTA and ROB [1]: 4 µg/mL
- MIC range, in combination of EDTA and ROB [1]: 1 to 8 µg/mL
- MBC/MIC, single drug ([1]; footnote for BS not shown): 1.75
- antibiofilm activity ([2]; P. aeruginosa biofilms, up to 128 μg/ml, 24 h): did not show any antibiofilm activity
- MBC/MIC, ROB in combination with EDTA [3]: 2
- MIC50 [3, 6]: 2 µg/mL
- MIC90 [3, 7]: 2 µg/mL
- MIC range, single drug ([3]; canine otitis externa): 1 to 4 µg/mL
- MIC50, in combination of EDTA and ROB [3]: 1 µg/mL
- MIC90, in combination of EDTA and ROB [3]: 1 µg/mL
- MIC range, in combination of EDTA and ROB [3]: 0.25 to 2 µg/mL
- MBC/MIC, single drug ([3]; footnote for BS not shown): 1.5
- MBC/MIC, ROB in combination with EDTA [4]: ≥2
- MIC50 [4, 6]: > 256 µg/mL
- MIC90 [4, 7]: > 256 µg/mL
- MIC range, single drug ([4]; canine otitis externa): >256 µg/mL
- MIC50, in combination of EDTA and ROB [4]: 0.125 µg/mL
- MIC90, in combination of EDTA and ROB [4]: 0.5 µg/mL
- MIC range, in combination of EDTA and ROB [4]: 0.125 to 4 µg/mL
- antibiofilm activity ([5]; S. pseudintermedius biofilms, up to 128 μg/ml, 24 h): did not show any antibiofilm activity

Compound: O=C(O)CN(CCN(CC(=O)O)CC(=O)O)CC(=O)O [EDTA, ethylenediaminetetraacetic acid]
- DRI EDTA:ROB (P. aeruginosa PA01): 2
- MIC in combination EDTA:ROB (mM in parentheses) (P. aeruginosa PA01; EDTA component): 2.5 mM
- MIC (P. aeruginosa PA01; read-out: MIC, single drug): 1900 µg/mL
- MIC (P. aeruginosa PA01; read-out: MIC, single drug (mM in parentheses)): 5 mM
- MIC in combination EDTA:ROB (P. aeruginosa PA01): 950 µg/mL
- MBC/MIC row, EDTA in combination [1]: 750 µg/mL
- MBC/MIC row, EDTA in combination (mM in parentheses) [1]: 2 mM
- MIC range, single drug (mM in parentheses) [1]: 0.5 to 2 mM
- MIC50, in combination of EDTA and ROB (mM in parentheses) ([1]; EDTA component): 0.5 mM
- MIC90, in combination of EDTA and ROB (mM in parentheses) ([1]; EDTA component): 1 mM
- MIC range, in combination of EDTA and ROB (mM in parentheses) ([1]; EDTA component): 0.25 to 1 mM
- MIC50 [1, 6]: 380 µg/mL
- MIC90 [1, 7]: 750 µg/mL
- MIC50 [1, 8]: 1 mM
- MIC90 [1, 9]: 2 mM
- MIC range, single drug ([1]; canine otitis externa): 190 to 750 µg/mL
- MIC50, in combination of EDTA and ROB [1]: 190 µg/mL
- MIC90, in combination of EDTA and ROB [1]: 380 µg/mL
- MIC range, in combination of EDTA and ROB [1]: 95 to 380 µg/mL
- concentration with significant disruption of 24 h preformed biofilms ([2]; Gram-negative (P. aeruginosa) biofilms, vs growth control): 1 mM
- MBC/MIC row, EDTA in combination [3]: 750 µg/mL
- MBC/MIC row, EDTA in combination (mM in parentheses) [3]: 2 mM
- MIC range, single drug (mM in parentheses) [3]: 0.25 to 1 mM
- MIC50, in combination of EDTA and ROB (mM in parentheses) ([3]; EDTA component): 0.25 mM
- MIC90, in combination of EDTA and ROB (mM in parentheses) ([3]; EDTA component): 0.25 mM
- MIC range, in combination of EDTA and ROB (mM in parentheses) ([3]; EDTA component): 0.25 mM
- MIC50 [3, 6]: 190 µg/mL
- MIC90 [3, 7]: 190 µg/mL
- MIC50 [3, 8]: 0.5 mM
- MIC90 [3, 9]: 0.5 mM
- MIC range, single drug ([3]; canine otitis externa): 95 to 380 µg/mL
- MIC50, in combination of EDTA and ROB [3]: 95 µg/mL
- MIC90, in combination of EDTA and ROB [3]: 95 µg/mL
- MIC range, in combination of EDTA and ROB [3]: 95 µg/mL
- MBC/MIC row, EDTA in combination [4]: 750 µg/mL
- MBC/MIC row, EDTA in combination (mM in parentheses) [4]: 2 mM
- MIC range, single drug (mM in parentheses) [4]: 0.5 to 2 mM
- MIC50, in combination of EDTA and ROB (mM in parentheses) ([4]; EDTA component): 1 mM
- MIC90, in combination of EDTA and ROB (mM in parentheses) ([4]; EDTA component): 1 mM
- MIC range, in combination of EDTA and ROB (mM in parentheses) ([4]; EDTA component): 0.5 to 1 mM
- MIC50 [4, 6]: 380 µg/mL
- MIC90 [4, 7]: 750 µg/mL
- MIC50 [4, 8]: 1 mM
- MIC90 [4, 9]: 2 mM
- MIC range, single drug ([4]; canine otitis externa): 190 to 750 µg/mL
- MIC50, in combination of EDTA and ROB [4]: 380 µg/mL
- MIC90, in combination of EDTA and ROB [4]: 380 µg/mL
- MIC range, in combination of EDTA and ROB [4]: 190 to 380 µg/mL
- concentration with significant disruption of 24 h preformed biofilms ([5]; Gram-positive (S. pseudintermedius) biofilms, vs growth control): 1 mM
